Patent publication US12570656B2, “Purine compounds for treating disorders” (MARVEL BIOTECHNOLOGY, priority 2020, dated 2026)
Where “and” joins values, the source holds several entries; their conditions need not be identical. Equal entries are not always repeated. Where two headings read alike, the source gives them in different places.

Columns and labels:
[1] = Plasma pharmacokinetics in male CD-1 mice (1 mg/kg i.v. or 3 mg/kg p.o.); conditions: CD-1, mouse, in vivo
Description: (§1) Male CD-1 mice were given either bolus 1 mg/kg i.v. or 3 mg/kg p.o. of the indicated compounds and plasma or brain concentrations were measured.
(§2) Where: • C0 concentration extrapolated to time zero following an i.v. dose • tmax time at which maximum concentration is observed • Cmax maximum observed concentration • Apparent t1/2 apparent terminal half-life • AUC0-tlast area under the concentration vs time curve from time 0 to the time of the last measurable concentration • AUC0-inf area under the concentration vs time curve from time 0 to infinity • CL systemic clearance • MRT0-inf mean residence time from time zero to infinity • Vss steady-state volume of distribution • F oral bioavailability=(Dose^iv*AUC^po)/(Dose^po*AUC^iv)*100

[2] = Brain pharmacokinetics and brain/plasma ratio in male CD-1 mice (1 mg/kg i.v.); assay type: in vivo; conditions: for Brain concentration / Brain/plasma concentration ratio / Kp at 5 min / Kp at 0.25 h / Kp at 0.5 h / Kp at 8 h / concentration at 5 min / concentration at 0.25 h / concentration at 0.5 h / concentration at 1 h / concentration at 2 h / concentration at 4 h / concentration at 6 h / concentration at 8 h / Kp at 1 h / Kp at 2 h / Kp at 4 h / Kp at 6 h: 1 mg/kg bolus i.v.; for Brain/plasma concentration ratio: listed as 1a; for Kp at 5 min / Kp at 0.25 h / Kp at 0.5 h / Kp at 8 h: brain and plasma; for concentration at 5 min / concentration at 0.25 h / concentration at 0.5 h / concentration at 1 h / concentration at 2 h / concentration at 4 h / concentration at 6 h / concentration at 8 h: intravenous
Description: as §1, §2

ADORA2A = ADORA2A (Homo sapiens, UniProt P29274); assay: GPCR screening, calcium flux (calcium mobilization), antagonist format; assay type: cell-based
Chain of ADORA2A (P29274 whole entry): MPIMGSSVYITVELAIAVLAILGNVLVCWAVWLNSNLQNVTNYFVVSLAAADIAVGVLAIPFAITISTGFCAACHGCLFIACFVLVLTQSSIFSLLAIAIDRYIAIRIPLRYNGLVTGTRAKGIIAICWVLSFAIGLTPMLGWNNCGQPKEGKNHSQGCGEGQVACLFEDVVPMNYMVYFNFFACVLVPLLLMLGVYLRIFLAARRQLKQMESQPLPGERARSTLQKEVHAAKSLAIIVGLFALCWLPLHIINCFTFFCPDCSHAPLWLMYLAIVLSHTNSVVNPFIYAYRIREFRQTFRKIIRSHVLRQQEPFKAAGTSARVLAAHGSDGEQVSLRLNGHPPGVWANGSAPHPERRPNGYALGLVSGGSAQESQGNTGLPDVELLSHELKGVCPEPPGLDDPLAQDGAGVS
Description: To ascertain whether the compounds are suitable A2aR antagonists, the compounds of formulae I, II, III, and IV were subjected to GPCR screening using A2aR as the target. The screening was done using the GPCR Screening and Profiling Services by Eurofins DiscoverX Corporation.
The compounds of formulae I, II, III, and IV were screened for GPCR activity using A2aR as the target.
Cell lines were expanded from freezer stocks according to standard procedures. Cells were seeded in a total volume of 20 μL into black-walled, clear-bottom, Poly-D-lysine coated 384-well microplates and incubated at 37° C. for the appropriate time prior to testing.
Assays were performed in 1× Dye Loading Buffer consisting of 1× Dye, 1× Additive A and 2.5 mM Probenecid in HBSS/20 mM Hepes. Probenicid was prepared fresh. Cells were loaded with dye prior to testing. Media was aspirated from cells and replaced with 20 μL Dye Loading Buffer. Cells were incubated for 30-60 minutes at 37° C.
For antagonist determination, cells were pre-incubated with sample followed by agonist challenge at the EC80 concentration. Intermediate dilution of sample stocks was performed to generate 3× sample in assay buffer. After dye loading, cells were removed from the incubator and 10 μL 3× sample was added. Cells were incubated for 30 minutes at room temperature in the dark to equilibrate plate temperature. Vehicle concentration was 1%. Compound antagonist activity was measured on a FLIPR Tetra (MDS). Calcium mobilization was monitored for 2 minutes and 10 μL EC80 agonist in HBSS/20 mM Hepes was added to the cells 5 seconds into the assay.
For antagonist and negative allosteric modulation mode assays, percentage inhibition is calculated using the following formula: % Inhibition=100%×(1−(mean RFU of test sample−mean RFU of vehicle control)/(mean RFU of EC80 control−mean RFU of vehicle control)).
When the calcium was released, the fluorescence of the dye was increased and the increase was measured in real-time.
FIGS. 1 to 6 show percent reacted (Y) versus concentration in μM (X). Compounds were tested in antagonist mode with the requested GPCR Biosensor Assay. For the antagonist assay, data was normalized to the maximal and minimal response observed in the presence of EC80 ligand and vehicle.

[3] = male, CD-1, mouse, iv, brain, i.v. 1 mg/kg

bioavailability [1]: 76%
AUC(0-inf) ([1]; iv, 1 mg/kg): 3240 ng·h/mL
AUC(0-t) ([1]; iv, 1 mg/kg): 2040 ng·h/mL
C0 ([1]; iv, 1 mg/kg): 1220 ng/mL
Cmax ([1]; iv, 1 mg/kg): 990 ng/mL
MRT inf ([1]; iv, 1 mg/kg): 8.02 h
Tmax ([1]; iv, 1 mg/kg): 0.0833 h
Vd ([1]; iv, 1 mg/kg): 2.47 L/kg
clearance ([1]; iv, 1 mg/kg): 5.13 mL/min/kg
half-life ([1]; iv, 1 mg/kg): 6 h
AUC(0-inf) ([1]; po, 3 mg/kg): 5090 ng·h/mL
AUC(0-t) ([1]; po, 3 mg/kg): 4650 ng·h/mL
Cmax ([1]; po, 3 mg/kg): 424 ng/mL
MRT inf ([1]; po, 3 mg/kg): 11.1 h
Tmax ([1]; po, 3 mg/kg): 4 h
half-life ([1]; po, 3 mg/kg): 6.52 h
Brain concentration ([2]; 5 min, individual animals 1-3): 851 ng/g and 682 ng/g
Brain/plasma concentration ratio ([2]; 5 min, individual animals 1-3): 0.867 and 0.751
Brain concentration ([2]; 0.25 h, individual animals 1-3): 426 ng/g and 665 ng/g
Brain/plasma concentration ratio ([2]; 0.25 h, individual animals 1-3): 0.789 and 0.795
Brain concentration ([2]; 0.5 h, individual animals 1-3): 282 ng/g and 381 ng/g
Brain/plasma concentration ratio ([2]; 0.5 h, individual animals 1-3): 0.535 and 0.779
Brain concentration ([2]; 1 h, individual animals 1-3): 318 ng/g and 175 ng/g
Brain/plasma concentration ratio ([2]; 1 h, individual animals 1-3): 0.763 and 0.550
Brain concentration ([2]; 2 h, individual animals 1-3): 195 ng/g and 185 ng/g
Brain/plasma concentration ratio ([2]; 2 h, individual animals 1-3): 0.739 and 0.661
Brain concentration ([2]; 4 h, individual animals 1-3): 158 ng/g and 198 ng/g
Brain/plasma concentration ratio ([2]; 4 h, individual animals 1-3): 0.745 and 0.783
Brain concentration ([2]; 6 h, individual animals 1-3): 138 ng/g and 122 ng/g
Brain/plasma concentration ratio ([2]; 6 h, individual animals 1-3): 0.683 and 0.758
Brain concentration ([2]; 8 h, individual animals 1-3): 118 ng/g and 114 ng/g
Brain/plasma concentration ratio ([2]; 8 h, individual animals 1-3): 0.771 and 0.809
AUC0-tlast ([2]; brain, i.v. 1 mg/kg): 1,447 h*ng/g
AUC(0-inf) ([2]; brain, i.v. 1 mg/kg): 2807^a h*ng/g
Kp at 5 min ([2]; male, CD-1, mouse, iv, 1 mg/kg, 5 min, individual animals 1-3, read-out: Brain/plasma concentration ratio): 0.757
Kp at 5 min ([2]; male, CD-1, mouse, iv, 1 mg/kg, 5 min, read-out: Brain/plasma concentration ratio, Mean): 0.792
Kp at 0.25 h ([2]; male, CD-1, mouse, iv, 1 mg/kg, 0.25 h, individual animals 1-3, read-out: Brain/plasma concentration ratio): 0.635
Kp at 0.25 h ([2]; male, CD-1, mouse, iv, 1 mg/kg, 0.25 h, read-out: Brain/plasma concentration ratio, Mean): 0.74
Kp at 0.5 h ([2]; male, CD-1, mouse, iv, 1 mg/kg, 0.5 h, individual animals 1-3, read-out: Brain/plasma concentration ratio): 0.731
Kp at 0.5 h ([2]; male, CD-1, mouse, iv, 1 mg/kg, 0.5 h, read-out: Brain/plasma concentration ratio, Mean): 0.682
Kp at 8 h ([2]; male, CD-1, mouse, iv, 1 mg/kg, 8 h, individual animals 1-3, read-out: Brain/plasma concentration ratio): 0.902
Kp at 8 h ([2]; male, CD-1, mouse, iv, 1 mg/kg, 8 h, read-out: Brain/plasma concentration ratio, Mean): 0.827
concentration at 5 min ([2]; male, CD-1, mouse, brain, 1 mg/kg, 5 min, individual animals 1-3, read-out: Brain concentration): 818 ng/g
concentration at 5 min ([2]; male, CD-1, mouse, brain, 1 mg/kg, 5 min, read-out: Brain concentration, Mean): 784 ng/g
concentration at 0.25 h ([2]; male, CD-1, mouse, brain, 1 mg/kg, 0.25 h, individual animals 1-3, read-out: Brain concentration): 373 ng/g
concentration at 0.25 h ([2]; male, CD-1, mouse, brain, 1 mg/kg, 0.25 h, read-out: Brain concentration, Mean): 488 ng/g
concentration at 0.5 h ([2]; male, CD-1, mouse, brain, 1 mg/kg, 0.5 h, individual animals 1-3, read-out: Brain concentration): 377 ng/g
concentration at 0.5 h ([2]; male, CD-1, mouse, brain, 1 mg/kg, 0.5 h, read-out: Brain concentration, Mean): 347 ng/g
concentration at 1 h ([2]; male, CD-1, mouse, brain, 1 mg/kg, 1 h, individual animals 1-3, read-out: Brain concentration): 269 ng/g
concentration at 1 h ([2]; male, CD-1, mouse, brain, 1 mg/kg, 1 h, read-out: Brain concentration, Mean): 254 ng/g
concentration at 2 h ([2]; male, CD-1, mouse, brain, 1 mg/kg, 2 h, individual animals 1-3, read-out: Brain concentration): 159 ng/g
concentration at 2 h ([2]; male, CD-1, mouse, brain, 1 mg/kg, 2 h, read-out: Brain concentration, Mean): 180 ng/g
concentration at 4 h ([2]; male, CD-1, mouse, brain, 1 mg/kg, 4 h, individual animals 1-3, read-out: Brain concentration): 120 ng/g
concentration at 4 h ([2]; male, CD-1, mouse, brain, 1 mg/kg, 4 h, read-out: Brain concentration, Mean): 159 ng/g
concentration at 6 h ([2]; male, CD-1, mouse, brain, 1 mg/kg, 6 h, individual animals 1-3, read-out: Brain concentration): 91.2 ng/g
concentration at 6 h ([2]; male, CD-1, mouse, brain, 1 mg/kg, 6 h, read-out: Brain concentration, Mean): 117 ng/g
concentration at 8 h ([2]; male, CD-1, mouse, brain, 1 mg/kg, 8 h, individual animals 1-3, read-out: Brain concentration): 110 ng/g
concentration at 8 h ([2]; male, CD-1, mouse, brain, 1 mg/kg, 8 h, read-out: Brain concentration, Mean): 114 ng/g
Kp at 1 h ([2]; male, CD-1, mouse, brain/plasma, iv, 1 mg/kg, 1 h, individual animals 1-3, read-out: Brain/plasma concentration ratio): 0.714
Kp at 1 h ([2]; male, CD-1, mouse, brain/plasma, iv, 1 mg/kg, 1 h, read-out: Brain/plasma concentration ratio, Mean): 0.675
Kp at 2 h ([2]; male, CD-1, mouse, brain/plasma, iv, 1 mg/kg, 2 h, individual animals 1-3, read-out: Brain/plasma concentration ratio): 0.572
Kp at 2 h ([2]; male, CD-1, mouse, brain/plasma, iv, 1 mg/kg, 2 h, read-out: Brain/plasma concentration ratio, Mean): 0.657
Kp at 4 h ([2]; male, CD-1, mouse, brain/plasma, iv, 1 mg/kg, 4 h, individual animals 1-3, read-out: Brain/plasma concentration ratio): 0.8
Kp at 4 h ([2]; male, CD-1, mouse, brain/plasma, iv, 1 mg/kg, 4 h, read-out: Brain/plasma concentration ratio, Mean): 0.776
Kp at 6 h ([2]; male, CD-1, mouse, brain/plasma, iv, 1 mg/kg, 6 h, individual animals 1-3, read-out: Brain/plasma concentration ratio): 0.86
Kp at 6 h ([2]; male, CD-1, mouse, brain/plasma, iv, 1 mg/kg, 6 h, read-out: Brain/plasma concentration ratio, Mean): 0.767
Kp ([2]; male, CD-1, mouse, brain/plasma, iv, 1 mg/kg, i.v. 1 mg/kg, read-out: Brain/plasma AUC0-tlast ratio): 0.71
Cmax [2, 3]: 784 ng/g
Tmax [2, 3]: 5 min
half-life ([2]; male, CD-1, mouse, iv, brain, i.v. 1 mg/kg, read-out: Apparent t1/2 (converted)): 8.27 h
MRT inf ([2]; male, CD-1, mouse, iv, brain, i.v. 1 mg/kg, read-out: MRT0-inf): 11.2 h
Curve Bottom (ADORA2A; Antagonist format): 1.23
Curve Top (ADORA2A; Antagonist format): 99
Hill (ADORA2A; Antagonist format): 1.4103
IC50 (ADORA2A; Antagonist format, EC80 0.021 μM NECA, read-out: RC50 (IC50)): 88.5 nM
Emax (ADORA2A; Antagonist format, read-out: Max Response): 98.1%
IC50 (ADORA2A; text to FIGS. 1-4, 6, antagonist mode, read-out: half maximal inhibitory concentration (IC50)): 88.5 nM and 75.5 nM
SMILES: CCn1c(=O)c2c(nc(/C=C/c3ccc(OC(F)F)c(OC(F)F)c3)n2C)n(CC)c1=O [Formula I, 8-[(E)-2-[3,4-bis(difluoromethoxy)phenyl]vinyl]-1,3-diethyl-7-methyl-purine-2,6-dione;hydrofluoride]
